Assay results as given in patent EP2565188A1, “Novel photoactivatable paclitaxel derivatives and uses thereof, in particular in cellbiology and cancer treatment” (Max-Planck-Gesellschaft zur Förderung der Wissenschaften …, priority 2011, dated 2013).

Key:
HeLa cells [1] = experiment: Live cell imaging of the microtubule network (Tubulin Tracker / DRAQ5, CLSM); format: cell-based, Human; conditions: for microtubule staining by Tubulin Tracker (fluorescence CLSM) / cell morphology / mitosis in microscopy images: 10 µM; for microtubule staining by Tubulin Tracker (fluorescence CLSM) / inhibition of PTX bioactivity / binding of PTX to β-tubulin by the cage / cell morphology / mitosis in microscopy images / concentrations at which the derivative bound to tubulin / concentration triggering the multiple nuclei pattern: 24 h; for inhibition of PTX bioactivity / binding of PTX to β-tubulin by the cage: concentrations up to 10 µM
Method: (§1) Human cervix carcinoma cells, HeLa cells (#ACC57, DMSZ, Germany), were cultured in DMEM medium (Invitrogen) supplemented with 10% fetal calf serum (FCS, Gibco) in a humidified incubator at 37°C/5%CO2.
In order to visualize the influence of the PTX derivatives in the microtubule network of the cell, a live cell microscopy analysis of HeLa cells after incubation with 10 µM PTX derivatives for 24 hours was performed.
Specifically, microtubules and nuclei of HeLa cells were fluorescently stained with Tubulin Tracker (Invitrogen) and DRAQ5 (biostatus, United Kingdom) respectively, and imaged by a Leica TCS SP5 confocal laser scanning microscopy (CLSM). 30x10^4 HeLa cells were seeded in 8-well chamber slides (Lab-Tek, nunc, Germany) and the culture medium was replaced after ~16 h by compound supplemented medium (250 µL, DMEM, 10% FCS, 1% DMSO) or medium without compound (DMEM, 10% FCS, 1% DMSO) as a specific control. After 24h, cells were carefully washed with Hank's Buffered Saline Solution (HBSS, with Ca^2+ and Mg^2+, Invitrogen) and the buffer was replaced by a staining solution containing 250 nM Tubulin Tracker (Invitrogen) and 5 µM DRAQ5. The cells were stained for 30 min at 37°C/5% CO2 in a humidified incubator. The staining solution was replaced by HBSS and the cells were directly imaged with a 100x plan apochromat (1.4 NA) oil immersion objective on the CLSM system equipped with a CO2 incubator and a temperature control. Tubulin Tracker was excited with an argon laser (488 nm) and the emission was detected by 500-580 nm. DRAQ5 was excited with a HeNe laser (633 nm) and the emission was detected by 650-730 nm. The images have a voxel height and width of 90 nm. Bright field images grabbed with an Olympus IX-70 inverted microscope with a 20x phase contrast objective. Image processing performed with Leica LAS AF lite and ImageJ (Fiji).

[2] = Solubility test of 10 µM solutions in 1:1000 DMSO:PIPES buffer; format: physicochemical
Method: 10 mM solutions of PTX derivatives in DMSO were prepared. All substances were soluble in DMSO at this concentration. 10 µM solutions of were obtained by 1:1000 dilution of the stock solution into 80 mM PIPES buffer pH 6.8, containing 2 mM MgCl2 and 1 mM EGTA. Table A: solubility test of 10 µM solutions of PTX derivatives in 1:1000 DMSO:PIPES buffer

[3] = Photocleavage study: irradiation at 360 nm, composition by HPLC; format: physicochemical; conditions: 1 mM, 5% water in acetonitril, share of the labelled species
Method: The photolysis of the compounds 2'-Nvoc-PTX and 2',7-bisNvoc-PTX was followed by UV and HPLC analysis of the correspondent solutions after exposure to light at λmax = 360 nm (2.7 mW/cm^2).
3 ml of a 1 mM solution of caged PTX in acetonitrile containing 5% water was placed into a quartz cuvette and was exposed at 360 nm for different irradiation times. Aliquots of 50 µl were taken after various irradiation times, and each aliquot was splitted in two parts. 20 µl were diluted to 400 µl to obtain 50 µM solution for UV-Vis characterisation. The 30 µl left from each aliquot were injected into the HPLC (20 µl loop, analytical column) in order to estimate the composition of the irradiated mixture.
Photocleavage of compound 2',7-bisNvoc-PTX was expected to yield the mono-substituted species 2'-Nvoc-PTX and 7-Nvoc-PTX as intermediates that can be further photolyzed to afford free PTX. In fact, HPLC analysis (Fig. 1) confirmed the presence of 2'-Nvoc-PTX (retention time, r.t.= 16.7 min) and 7-Nvoc-PTX (r.t. = 18.2 min) together with the starting compound 2',7-bisNvoc-PTX (r.t. = 21.3 min) and the fully deprotected PTX (r.t. = 11.1 min). The ratio of these compounds within the composition of the irradiated mixture changes with the exposure dose. Fig. 2 and Table B below show the compositional evolution of the mixture with increasing irradiation time as obtained by HPLC analysis. […] However, the influence of other structural factors in the photolytic mechanism cannot be ruled out. Compound 7-Nvoc-PTX could also be isolated from the irradiated mixture in milligram scale. Table B. Molar composition of a solution of 2',7-bisNvoc-PTX (1 mM, 5% water in acetonitril) after different irradiation times, as determined by analysis of HPLC graphs (Fig. 2)

HeLa cells [4] = format: cell-based, Human; conditions: for cytotoxicity: concentrations at least up to 10 µM
Method: as §1
In order to evaluate the bioactivity of the caged PCT derivatives, their cytotoxicity was tested in vitro using HeLa cells. Cells were incubated with PTX and caged PTX derivatives at concentrations between 0.01 and 10 µM.
The effect of PTX and derivatives on cell vitality was measured in a combined assay determining cytotoxicity and cell number by propidium iodide (PI) staining. HeLa cells (2x10^4 cells/well) were diluted in cell culture medium (DMEM, 10 % FCS) and seeded in 96 well-plates (black plate, clear bottom, corning, Amsterdam, Netherlands). The culture medium was replaced after ~16h by compound supplemented medium (200 µL, DMEM, 10 % FCS, 1 % DMSO) or medium without compound (DMEM, 10 % FCS, 1 % DMSO) as a specific control. After 48 h, dead cells with permeable cell membranes were stained with PI ([…], 15 min at 37°C, 5% CO2) and the PI fluorescence intensity was measured with a fluorescence plate reader (excitation wavelength 530 nm, emission wavelength 620 nm, Tecan Infinite M1000, Austria). Subsequently, the cells were lysed with 2% Triton X-100 diluted in DMEM (0.3% Triton X-100 per well, 15 min at 37°C, 5% CO2 and the PI fluorescence was measured again. The vitality of the cells was calculated by the ratio of dead cells (DC) before lyses and the total cell number (TCN) after lyses (1-DC/TCN).

[5] = 10 µM in 1:1000 DMSO:PIPES buffer (80 mM, pH 6.8), time 1 hr
[6] = 10 µM in 1:1000 DMSO:PIPES buffer (80 mM, pH 6.8), time 8 hrs
[7] = 10 µM in 1:1000 DMSO:PIPES buffer (80 mM, pH 6.8), time 24 hrs
[8] = 10 µM in 1:1000 DMSO:PIPES buffer (80 mM, pH 6.8), time 30 hrs
[9] = 10 µM in 1:1000 DMSO:PIPES buffer (80 mM, pH 6.8, 2 mM MgCl2, 1 mM EGTA), time 5 min
[10] = 360 nm (2.7 mW/cm^2), irradiation time 0 min
[11] = 360 nm, irradiation time 60 min
[12] = 360 nm, irradiation time 270 min
[13] = 360 nm, irradiation time 450 min
[14] = 360 nm, irradiation time 570 min
[15] = 360 nm, irradiation time 735 min
[16] = 360 nm, irradiation time 820 min
[17] = 360 nm, irradiation time 1585 min

SMILES: COc1cc(COC(=O)O[C@H]2C[C@H]3OC[C@@]3(OC(C)=O)[C@H]3[C@H](OC(=O)c4ccccc4)[C@]4(O)C[C@H](OC(=O)[C@H](OC(=O)OCc5cc(OC)c(OC)cc5[N+](=O)[O-])[C@@H](NC(=O)c5ccccc5)c5ccccc5)C(C)=C([C@@H](OC(C)=O)C(=O)[C@]23C)C4(C)C)c([N+](=O)[O-])cc1OC [2',7-bisNvoc-PTX]
- microtubule staining by Tubulin Tracker (fluorescence CLSM) (HeLa cells [1]): evenly stained by Tubulin Tracker and showed similar patterns than the negative control
- inhibition of PTX bioactivity / binding of PTX to β-tubulin by the cage (HeLa cells [1]): effectively inhibited binding of PTX to β-tubulin
- solubility test (appearance of solution) [2, 5]: clear solution
- solubility test (appearance of solution) [2, 6]: clear solution
- solubility test (appearance of solution) [2, 7]: clear solution
- solubility test (appearance of solution) [2, 8]: turbid solution
- solubility test (appearance of solution) [2, 9]: clear solution
- Molar composition of a solution of 2',7-bisNvoc-PTX after irradiation [3, 10]: 100%
- Molar composition of a solution of 2',7-bisNvoc-PTX after irradiation [3, 11]: 90.5%
- Molar composition of a solution of 2',7-bisNvoc-PTX after irradiation [3, 12]: 72.3%
- Molar composition of a solution of 2',7-bisNvoc-PTX after irradiation [3, 13]: 51.1%
- Molar composition of a solution of 2',7-bisNvoc-PTX after irradiation [3, 14]: 42.2%
- Molar composition of a solution of 2',7-bisNvoc-PTX after irradiation [3, 15]: 27.5%
- Molar composition of a solution of 2',7-bisNvoc-PTX after irradiation [3, 16]: 24.3%
- Molar composition of a solution of 2',7-bisNvoc-PTX after irradiation [3, 17]: 6.1%
- cytotoxicity (HeLa cells [4]; 48 h): did not show any cytotoxicity
- vitality of cells after incubation with irradiated solutions (HeLa cells [4]; irradiated solutions of 2',7-bisNvoc-PTX, longer irradiation times): 0.5
- cytotoxic effects of irradiated solutions (HeLa cells [4]; irradiated solutions of 2',7-bisNvoc-PTX, shortest irradiation time): Cytotoxic effects were visible already at the shortest irradiation time

SMILES: COc1cc(COC(=O)O[C@@H](C(=O)O[C@H]2C[C@@]3(O)[C@@H](OC(=O)c4ccccc4)[C@@H]4[C@]5(OC(C)=O)CO[C@@H]5C[C@H](O)[C@@]4(C)C(=O)[C@H](OC(C)=O)C(=C2C)C3(C)C)[C@@H](NC(=O)c2ccccc2)c2ccccc2)c([N+](=O)[O-])cc1OC [2'-Nvoc-PTX]
- cell morphology / mitosis in microscopy images (HeLa cells [1]): showed similar results to free PTX
- concentrations at which the derivative bound to tubulin (HeLa cells [1]): > 10 nM
- inhibition of PTX bioactivity / binding of PTX to β-tubulin by the cage (HeLa cells [1]): not able to completely inhibit PTX bioactivity
- concentration triggering the multiple nuclei pattern (HeLa cells [1]; patterns similar between the compounds (Fig. 6)): 0.05 µM
- solubility test (appearance of solution) [2, 5]: clear solution
- solubility test (appearance of solution) [2, 6]: clear solution
- solubility test (appearance of solution) [2, 7]: turbid solution
- solubility test (appearance of solution) [2, 8]: Suspension
- solubility test (appearance of solution) [2, 9]: clear solution
- Molar composition of a solution of 2',7-bisNvoc-PTX after irradiation [3, 10]: 0%
- Molar composition of a solution of 2',7-bisNvoc-PTX after irradiation [3, 11]: 6.3%
- Molar composition of a solution of 2',7-bisNvoc-PTX after irradiation [3, 12]: 17.4%
- Molar composition of a solution of 2',7-bisNvoc-PTX after irradiation [3, 13]: 27.6%
- Molar composition of a solution of 2',7-bisNvoc-PTX after irradiation [3, 14]: 32.3%
- Molar composition of a solution of 2',7-bisNvoc-PTX after irradiation [3, 15]: 35.6%
- Molar composition of a solution of 2',7-bisNvoc-PTX after irradiation [3, 16]: 38.1%
- Molar composition of a solution of 2',7-bisNvoc-PTX after irradiation [3, 17]: 25.6%
- reduction in vitality (HeLa cells [4]; 48 h, at 0.5 µM): ~ 25%
- concentration range over which the derivative can be regarded as caged PTX (HeLa cells [4]; vitality results): < 0.1 µM

SMILES: COc1cc(COC(=O)O[C@H]2C[C@H]3OC[C@@]3(OC(C)=O)[C@H]3[C@H](OC(=O)c4ccccc4)[C@]4(O)C[C@H](OC(=O)[C@H](O)[C@@H](NC(=O)c5ccccc5)c5ccccc5)C(C)=C([C@@H](OC(C)=O)C(=O)[C@]23C)C4(C)C)c([N+](=O)[O-])cc1OC [7-Nvoc-PTX]
- cell morphology / mitosis in microscopy images (HeLa cells [1]): formed an adherent monolayer similar to the negative control
- microtubule staining by Tubulin Tracker (fluorescence CLSM) (HeLa cells [1]): microtubules were less stained, tripolar spindles appeared and the cells developed multiple nuclei with different sizes
- concentrations at which the derivative bound to tubulin (HeLa cells [1]): > 1000 nM
- inhibition of PTX bioactivity / binding of PTX to β-tubulin by the cage (HeLa cells [1]): not able to completely inhibit PTX bioactivity
- concentration triggering the multiple nuclei pattern (HeLa cells [1]; pattern similar to 2 nM PTX (Fig. 6)): 10 µM
- prevention of mitotic blocking relative to 2'-Nvoc-PTX (HeLa cells [1]; at the concentration tested (10 µM)): ~ 200 fold
- Molar composition of a solution of 2',7-bisNvoc-PTX after irradiation [3, 10]: 0%
- Molar composition of a solution of 2',7-bisNvoc-PTX after irradiation [3, 11]: 3.2%
- Molar composition of a solution of 2',7-bisNvoc-PTX after irradiation [3, 12]: 8.6%
- Molar composition of a solution of 2',7-bisNvoc-PTX after irradiation [3, 13]: 15.3%
- Molar composition of a solution of 2',7-bisNvoc-PTX after irradiation [3, 14]: 14.9%
- Molar composition of a solution of 2',7-bisNvoc-PTX after irradiation [3, 15]: 18.4%
- Molar composition of a solution of 2',7-bisNvoc-PTX after irradiation [3, 16]: 16.4%
- Molar composition of a solution of 2',7-bisNvoc-PTX after irradiation [3, 17]: 7.8%
- cytotoxicity (HeLa cells [4]; 48 h): did not show any cytotoxicity
